The test system of one series is human ACC2 mRNA. Put plainly: Inhibition of ACC2 mRNA formation in C2C12 (Real-Time qPCR). Conditions: C2C12 cells, 24 hours; for reduction of ACC2 mRNA compared to control: standardized by GAPDH; for amount of ACC2 mRNA: 100 zM to 1 fM, concentration-dependently. It is filed as cell-based, mouse. The procedure:
“ASO 1” was evaluated by Real-Time qPCR for its ability to down-regulate the ACC2 mRNA formation in C2C12 as described below.
[Cell Culture & ASO Treatment] C2C12 cells (Cat. No. CRL-1772, ATCC) were maintained in Dulbecco Modified Eagle Medium (DMEM, Cat. No. 12-604F, Lonza) supplemented with 10% Fetal Bovine Serum (Cat. No. 10099-41, GIBCO) and 1% streptomycin/penicillin (Cat. No. 15140-122, GIBCO), which was grown at 37° C. and under 5% CO2 condition. C2C12 cells (2×10^5) stabilized for 24 hours in 60 mm culture dish were incubated for 24 hours with “ASO 1” at 0 (negative control) and 100 zM to 1 fM.
[RNA Extraction & cDNA Synthesis] Total RNA was extracted using RNeasy Mini kit (Qiagen, Cat. No. 714106) according to the manufacturer's instructions from “ASO 1” treated cells and cDNA was prepared from 400 ng of RNA by use of PrimeScript™ 1st strand cDNA Synthesis Kit (Takara, Cat. No. 6110A). To a mixture of 400 ng of RNA, 1 microliter of random hexamer, and 1 microliter of dNTP (10 mM) in PCR tube was added DEPC-treated water to a total volume of 10 microliter, which was reacted at 65° C. for 5 minutes. cDNA was synthesized by adding 10 microliter of PrimeScript RTase to the reaction mixture and reacting at 30° C. for 10 minutes and at 42° C. for 60 minutes, successively.
[Quantitative Real-Time PCR] In order to evaluate the expression level of […] ACC2 mRNA real-time qPCR was performed with synthesized cDNA by use of Tagman probe. The mixture of cDNA, Taqman probe (Thermo, Mm01204651), IQ supermix (BioRad, Cat. No. 170-8862), and nuclease free water in PCR tube was under reaction by use of CFX96 Touch Real-Time system (BioRad) according to the cycle conditions specified as follows: at 95° C. for 3 min (primary denaturation) followed by 50 cycles of 10 sec at 95° C. (denaturation) and 30 sec at 60° C. (annealing and polymerization). Fluorescence intensity was measured at the end of every cycle and the result of PCR was evaluated by the melting curve. After the threshold cycle (Ct) of each gene was standardized by that of GAPDH, the change of Ct was compared and analyzed.
“ASO 6” was evaluated by Real-Time qPCR for its ability to down-regulate the ACC2 mRNA formation in C2C12 as described below.
[Cell Culture & ASO Treatment] C2C12 cells (Cat. No. CRL-1772, ATCC) were maintained in Dulbecco Modified Eagle Medium (DMEM, Cat. No. 12-604F, Lonza) supplemented with 10% Fetal Bovine Serum (Cat. No. 10099-41, GIBCO) and 1% streptomycin/penicillin (Cat. No. 15140-122, GIBCO), which was grown at 37° C. and under 5% CO2 condition. C2C12 cells (2×10^5) stabilized for 24 hours in 60 mm culture dish were incubated for 24 hours with “ASO 6” at 0 (negative control) and 100 zM to 1 fM.
[RNA Extraction & cDNA Synthesis] Total RNA was extracted using RNeasy Mini kit (Qiagen, Cat. No. 714106) according to the manufacturer's instructions from “ASO 6” treated cells and cDNA was prepared from 400 ng of RNA by use of PrimeScript™ 1st strand cDNA Synthesis Kit (Takara, Cat. No. 6110A). To a mixture of 400 ng of RNA, 1 microliter of random hexamer, and 1 microliter of dNTP (10 mM) in PCR tube was added DEPC-treated water to a total volume of 10 microliter, which was reacted at 65° C. for 5 minutes. cDNA was synthesized by adding 10 microliter of PrimeScript RTase to the reaction mixture and reacting at 30° C. for 10 minutes and at 42° C. for 60 minutes, successively.
“ASO 5” was evaluated by the same method as described below.
[Cell Culture & ASO Treatment] C2C12 cells (Cat. No. CRL-1772, ATCC) were maintained in Dulbecco Modified Eagle Medium (DMEM, Cat. No. 12-604F, Lonza) supplemented with 10% Fetal Bovine Serum (Cat. No. 10099-41, GIBCO) and 1% streptomycin/penicillin (Cat. No. 15140-122, GIBCO), which was grown at 37° C. and under 5% CO2 condition. C2C12 cells (2×10^5) stabilized for 24 hours in 60 mm culture dish were incubated for 24 hours with “ASO 5” at 0 (negative control) and 100 zM to 1 fM.
[RNA Extraction & cDNA Synthesis] […]

For the next series, the system named is 10-mer complementary DNA. Put plainly: Binding affinity for complementary DNA by Tm (UV/Vis). Conditions: aqueous buffer pH 7.16, 10 mM sodium phosphate, 100 mM NaCl; for Tm Value, 10-mer DNA against C-Terminal: duplex of PNA and 10-mer complementary DNA targeting the C-terminal of PNA; for Tm Value, 10-mer DNA against N-Terminal: duplex of PNA and 10-mer complementary DNA targeting the N-terminal of PNA. The procedure:
The PNA derivatives of Formula I were evaluated for their binding affinity for 10-mer DNAs complementarily targeting either the N-terminal or C-terminal. The binding affinity was assessed by Tm value for the duplex between PNA and 10-mer complementary DNA. The duplex between PNA derivatives and fully complementary DNAs show Tm values too high to be reliably determined in aqueous buffer solution, since the buffer solution tends to boil during the Tm measurement. Tm values for full length PNAs can be predicted and compared based on the Tm value for the duplex between PNA and 10-mer complementary DNA.
Tm values were determined on a UV/Vis spectrometer as follows. A mixed solution of […] PNA oligomer and 4 μM complementary 10-mer DNA in 4 mL aqueous buffer (pH 7.16, 10 mM sodium phosphate, 100 mM NaCl) in 15 mL polypropylene falcon tube was incubated at 90° C. for a few minute and slowly cooled down to ambient temperature. Then the solution was transferred into a 3 mL quartz UV cuvette equipped with an air-tight cap, and the cuvette was mounted on an Agilent 8453 UV/Visible spectrophotometer. The absorbance changes at 260 nm were recorded with increasing the temperature of the cuvette by either 0.5 or 1° C. per minute. From the absorbance vs temperature curve, the temperature showing the largest increase rate in absorbance was read out as the Tm between PNA and 10-mer DNA. The DNAs for Tm measurement were purchased from Bioneer (www.bioneer.com, Dajeon, Republic of Korea) and used without further purification.

Another series relates to ACC2 exon 12. Put plainly: Exon skipping of ACC2 mRNA in C2C12 (nested RT-PCR, electrophoresis, Sanger sequencing). It is filed as cell-based. Conditions: C2C12 cells, 5 hours, 0.1 aM to 1 fM. As to the method: “ASO 1” was evaluated for its ability to induce the skipping of ACC2 “exon 12” in C2C12 cells as described below.
[Cell Culture & ASO Treatment] C2C12 cells (2×10^5) (Cat. No. CRL-1772, ATCC) were grown in 60 mm culture dish containing DMEM medium (Dulbecco Modified Eagle Medium: DMEM) (Cat. No. 12-604F, Lonza) supplemented with 10% FBS (Fetal Bovine Serum) (Cat. No. 10099-41, GIBCO) and 1% streptomycin/penicillin (Cat. No. 15140-122, GIBCO) under 5% CO2 atmosphere at 37° C. The cells were treated either with nothing (negative control) or with an aliquot of aqueous stock solution of “ASO 1” for 5 hours at 100 zM to 1 fM.
[RNA Extraction & Nested PCR] Total RNA was extracted using RNeasy Mini kit (Qiagen, Cat. No. 714106) according to the manufacturer's instructions from “ASO 1” treated cells and cDNA was prepared from 200 ng of RNA by use of SuperScript™ III One-Step RT-PCR System (Cat. No. 12574-018, Invitrogen). […]
[Identification of Exon Skipping Products Electrophoresis] […] The target bands from “ASO 1” treatment were collected and analyzed by Sanger Sequencing to evaluate exon skipping sequence.

“(N→C) Fethoc-CTG(6)-AC(1O2)G-A(5)AA(5)-TG(6)G-NH2 [ASO 5]”: the figures for the “reduction of ACC2 mRNA compared to control” value in the series with human ACC2 mRNA (1 aM) and with human ACC2 mRNA (1 fM) were 30% and 42%, respectively. For the same substance, the “amount of ACC2 mRNA” value in the series on human ACC2 mRNA is given as “reduced”.
The matching figures for “(N→C) Fethoc-CTG(6)-AC(1O2)G-A(5)AA(5)-TG(6)G-C(1O2)C—NH2 [ASO 6]”: 30%, 50% and “reduced”.
Turning to “(N→C) Fethoc-AC(1O2)T-GA(5)C-GA(5)A-A(5)TG(5)-GC(1O2)-NH2 [ASO 4]”, in the series on 10-mer complementary DNA, the “Tm Value, 10-mer DNA against C-Terminal” value worked out at 82.01 °C and the “Tm Value, 10-mer DNA against N-Terminal” value was 80.01 °C.
Regarding “(N→C) Fethoc-TA(5)C(1O2)-TGA(5)-CGA(5)-AA(5)T-G(6)GC(1O2)-C—NH2 [ASO 2]”, in the series with 10-mer complementary DNA, the “Tm Value, 10-mer DNA against C-Terminal” value was found to be 82.01 °C and the “Tm Value, 10-mer DNA against N-Terminal” value was 82.99 °C.
On to “(N→C) Fethoc-TA(5)C-TG(5)A-C(1O2)GA(5)-AA(5)T-G(5)G-NH2 [ASO 3]”, for which, in the series on 10-mer complementary DNA, the “Tm Value, 10-mer DNA against C-Terminal” value stood at 78.99 °C and the “Tm Value, 10-mer DNA against N-Terminal” value was 76.03 °C.
For “(N→C) Fethoc-CTG(6)-ACG(6)-AA(5)A-TG(6)G-C(1O2)C—NH2 (CTNACNANATNGNC; PNA with modified bases, Fethoc N-cap, C-amide; PNA modified oligonucleotide; (1)..(14) PNA modified oligonucleotide, human acetyl-CoA carboxylase2 targeted artificial sequence; (1)..(1) Carbamated N-terminal; modified_base (3)..(3) n is a, g, c, or t; modified_base (6)..(6) n is a, g, c, or t; modified_base (8)..(8) n is a, g, c, or t; modified_base (11)..(11) n is a, g, c, or t; modified_base (13)..(13) n is a, g, c, or t) [ASO 1, peptide nucleic acid derivative targeting the 5′ splice site of exon 12 in the human ACC2 pre-mRNA]”, in the series with human ACC2 mRNA (1 fM), the “reduction of ACC2 mRNA compared to control” value is on record as 30%. Moreover, in the series with human ACC2 mRNA, the “amount of ACC2 mRNA” value was “reduced”. Besides, the “Exon skipping (splice variant ACC2 mRNA)” value with ACC2 exon 12 is given as “concentration-dependently yielded the splice variant ACC2 mRNA lacking exon 11”. Besides, in the series on 10-mer complementary DNA, the “Tm Value, 10-mer DNA against C-Terminal” value is 79.60 °C and the “Tm Value, 10-mer DNA against N-Terminal” value amounted to 72.80 °C.

The values are drawn from patent US11739124B2, “Acetyl-CoA carbosylase2 antisense oligonucleotides” (OLIPASS CORPORATION, priority 2018, dated 2023).
